From patent US20230027985A1, “SUBSTITUTED HYDANTOINAMIDES AS ADAMTS7 ANTAGONISTS” (Bayer Aktiengesellschaft, priority 2019, published 2023)
pIC50: −log10 of the molar value.

Columns and labels:
ADAMTS4 = molecular target: T1, ADAMTS4 (Homo sapiens, UniProt O75173); assay: Selectivity assay for ADAMTS-7 modulators (FRET), ADAMTS4; assay type: biochemical; conditions: 50 nM enzyme (R&D 4307-AD), 1 μM Dabcyl/Edans FRET substrate, 120 min at 32° C.
T1 construct: purchased R&D 4307-AD
T1 sequence (O75173 213-685 limits assumed): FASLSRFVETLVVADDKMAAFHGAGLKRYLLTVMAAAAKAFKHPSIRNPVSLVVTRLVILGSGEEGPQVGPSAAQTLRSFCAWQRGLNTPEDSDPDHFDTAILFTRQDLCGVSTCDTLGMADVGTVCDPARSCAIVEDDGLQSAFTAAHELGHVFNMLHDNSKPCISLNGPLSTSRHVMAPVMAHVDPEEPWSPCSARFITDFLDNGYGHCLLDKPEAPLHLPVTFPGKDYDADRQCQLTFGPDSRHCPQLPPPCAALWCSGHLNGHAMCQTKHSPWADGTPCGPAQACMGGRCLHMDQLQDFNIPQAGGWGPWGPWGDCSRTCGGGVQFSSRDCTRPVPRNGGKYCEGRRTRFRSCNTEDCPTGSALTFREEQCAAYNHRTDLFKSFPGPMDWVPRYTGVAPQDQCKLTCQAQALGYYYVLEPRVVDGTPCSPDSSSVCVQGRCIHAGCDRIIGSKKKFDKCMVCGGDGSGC
Summary of the method: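 Enzyme in 50 mM Tris pH 7.5, 150 mM NaCl, 10 mM CaCl2, 0.05% Brij, preincubated with compound in DMSO; reaction started with FRET substrate. Fluorescence increase read after 120 min at 32° C; IC50 from percent inhibition versus compound concentration.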

[1] = molecular target: T2, Purified recombinant ADAMTS-7 (rat prodomain/human catalytic domain, SEQ ID No. 01 or 02) (Homo sapiens, UniProt Q9UKP4); assay: Assay for ADAMTS-7 enzymatic activity (FRET substrate cleavage); assay type: biochemical; conditions: FRET substrate SEQ ID No. 11, 120 min at 32° C.; read-out: ADAMTS7-IC50
T2 construct: rat ADAMTS-7 signal peptide + prodomain (rat 1-217, Q1EHB3) (N); 2xStrep tag (C); 6xHis tag (C); made in house; host or cells: Expi293 cells
T2 sequence (Q9UKP4 237-537): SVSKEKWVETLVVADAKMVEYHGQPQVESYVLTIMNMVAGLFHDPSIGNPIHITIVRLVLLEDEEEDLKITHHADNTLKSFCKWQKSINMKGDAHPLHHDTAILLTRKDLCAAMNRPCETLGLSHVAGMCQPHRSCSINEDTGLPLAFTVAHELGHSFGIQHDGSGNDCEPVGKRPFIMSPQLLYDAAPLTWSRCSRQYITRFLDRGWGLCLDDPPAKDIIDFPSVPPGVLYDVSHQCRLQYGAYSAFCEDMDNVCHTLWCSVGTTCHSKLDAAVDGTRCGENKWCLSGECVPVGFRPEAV
Summary of the method: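 IC50 values were fitted from percent inhibition across test-compound concentrations. Fluorescence gain (ex 485, em 520 nm) reports cleavage of a thrombospondin-1 (275-289) FRET peptide with QXL520 quencher, after 120 min at 32 °C. The enzyme, about 20 nM, was in HEPES pH 8.0 buffer with NaCl, CaCl2, ZnCl2 and Brij.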

Structure (SMILES) | pIC50 (ADAMTS4) | pIC50 [1]
O=C1NC(=O)[C@](CNC(=O)c2cnn(-c3ccc(OC(F)(F)F)cc3)n2)(C2CC2)N1 [Example 106, N-{[(4R)-4-cyclopropyl-2,5-dioxoimidazolidin-4-yl]methyl}-2-[4-(trifluoromethoxy)phenyl]-2H-1,2,3-triazole-4-carboxamide] | < 4.30 | 6.72
O=C1NC(=O)[C@](CNC(=O)c2cnn(-c3ccccn3)n2)(C2CC2)N1 [Example 47, N-{[(4R)-4-cyclopropyl-2,5-dioxoimidazolidin-4-yl]methyl}-2-(pyridin-2-yl)-2H-1,2,3-triazole-4-carboxamide] | 5.12 | 7.01
O=C1NC(=O)C(CNC(=O)c2cnn(-c3ccccc3)n2)(C2CCOC2)N1 (racemic) [Example 19, rac-N-{[2,5-dioxo-4-(tetrahydrofuran-3-yl)imidazolidin-4-yl]methyl}-2-phenyl-2H-1,2,3-triazole-4-carboxamide] | 4.66 | 6.77
O=C1NC(=O)C(CNC(=O)c2cnn(-c3ccccc3)n2)(C2CCCC2)N1 (stereo not drawn) [Example 83, ent-N-[(4-cyclopentyl-2,5-dioxoimidazolidin-4-yl)methyl]-2-phenyl-2H-1,2,3-triazole-4-carboxamide] | 4.96 | 6.92
N#Cc1ccc(-n2ncc(C(=O)NC[C@@]3(C4CC4)NC(=O)NC3=O)n2)cc1 [Example 14, 2-(4-cyanophenyl)-N-{[(4R)-4-cyclopropyl-2,5-dioxoimidazolidin-4-yl]methyl}-2H-1,2,3-triazole-4-carboxamide] | 4.77 | 6.40
O=C1NC(=O)[C@](CNC(=O)c2nnc(-c3ccc(F)cc3)o2)(C2CC2)N1 [Example 42, N-{[(4R)-4-cyclopropyl-2,5-dioxoimidazolidin-4-yl]methyl}-5-(4-fluorophenyl)-1,3,4-oxadiazole-2-carboxamide] | 4.92 | 6.46
O=C1NC(=O)[C@](CNC(=O)c2cnn(-c3cc(F)ccc3F)n2)(C2CC2)N1 [Example 36, N-{[(4R)-4-cyclopropyl-2,5-dioxoimidazolidin-4-yl]methyl}-2-(2,5-difluorophenyl)-2H-1,2,3-triazole-4-carboxamide] | 5.26 | 6.96
N#Cc1cccc(-n2ncc(C(=O)NC[C@@]3(C4CC4)NC(=O)NC3=O)n2)c1 [Example 17, 2-(3-cyanophenyl)-N-{[(4R)-4-cyclopropyl-2,5-dioxoimidazolidin-4-yl]methyl}-2H-1,2,3-triazole-4-carboxamide] | 6.22 | 7.49
O=C1NC(=O)[C@](CNC(=O)c2cnn(-c3cnsc3)n2)(C2CC2)N1 [Example 132, N-{[(4R)-4-cyclopropyl-2,5-dioxoimidazolidin-4-yl]methyl}-2-(1,2-thiazol-4-yl)-2H-1,2,3-triazole-4-carboxamide] | 5.13 | 6.64

Second part, the molecule after the results:

pIC50 (ADAMTS4) | pIC50 [1] | Structure (SMILES)
4.82 | 7.23 | O=C1NC(=O)C(CNC(=O)c2cnn(-c3ccc(F)cc3)n2)(c2ncccc2C(F)(F)F)N1 (racemic) [Example 156, rac-N-({2,5-dioxo-4-[3-(trifluoromethyl)pyridin-2-yl]imidazolidin-4-yl}methyl)-2-(4-fluorophenyl)-2H-1,2,3-triazole-4-carboxamide]
6.32 | 7.59 | O=C1NC(=O)[C@](CNC(=O)c2cnn(-c3ccc(Cl)cc3)n2)(C2CC2)N1 [Example 9, 2-(4-chlorophenyl)-N-{[(4R)-4-cyclopropyl-2,5-dioxoimidazolidin-4-yl]methyl}-2H-1,2,3-triazole-4-carboxamide]
6.05 | 8.22 | O=C1NC(=O)C(CNC(=O)c2cnn(-c3ccc(F)c(F)c3)n2)(C2CCC2)N1 (stereo not drawn) [Example 94, ent-N-[(4-cyclobutyl-2,5-dioxoimidazolidin-4-yl)methyl]-2-(3,4-difluorophenyl)-2H-1,2,3-triazole-4-carboxamide]
7.39 | 8.70 | Cn1ccnc1C1(CNC(=O)c2cnn(-c3ccc(Cl)c(F)c3)n2)NC(=O)NC1=O (single isomer, unassigned; ent-2) [Example 145, ent-2-(4-chloro-3-fluorophenyl)-N-{[4-(1-methyl-1H-imidazol-2-yl)-2,5-dioxoimidazolidin-4-yl]methyl}-2H-1,2,3-triazole-4-carboxamide]
5.43 | 7.13 | O=C1NC(=O)C(CNC(=O)c2cnn(-c3ccc(F)cc3)n2)(C2(Cl)CC2)N1 (racemic) [Example 159, rac-N-{[4-(1-chlorocyclopropyl)-2,5-dioxoimidazolidin-4-yl]methyl}-2-(4-fluorophenyl)-2H-1,2,3-triazole-4-carboxamide]
5.66 | 6.77 | Cc1cccc(-n2ncc(C(=O)NC[C@@]3(C4CC4)NC(=O)NC3=O)n2)c1 [Example 18, N-{[(4R)-4-cyclopropyl-2,5-dioxoimidazolidin-4-yl]methyl}-2-(3-methylphenyl)-2H-1,2,3-triazole-4-carboxamide]
5.36 | 7.62 | O=C1NC(=O)C(CNC(=O)c2cnn(-c3ccc(F)cc3)n2)(C2CCC2)N1 (stereo not drawn) [Example 77, ent-N-[(4-cyclobutyl-2,5-dioxoimidazolidin-4-yl)methyl]-2-(4-fluorophenyl)-2H-1,2,3-triazole-4-carboxamide]
6.70 | 8.30 | Cn1ccnc1C1(CNC(=O)c2cnn(-c3cc(F)c(F)c(F)c3)n2)NC(=O)NC1=O (racemic) [Example 143, rac-N-{[4-(1-methyl-1H-imidazol-2-yl)-2,5-dioxoimidazolidin-4-yl]methyl}-2-(3,4,5-trifluorophenyl)-2H-1,2,3-triazole-4-carboxamide]
6.02 | 7.33 | Cc1ccc(-n2ncc(C(=O)NC[C@@]3(C4CC4)NC(=O)NC3=O)n2)cc1 [Example 13, N-{[(4R)-4-cyclopropyl-2,5-dioxoimidazolidin-4-yl]methyl}-2-(4-methylphenyl)-2H-1,2,3-triazole-4-carboxamide]
5.05 | 7.08 | CC1(CNC(=O)c2cnn(-c3ccc(F)cc3)n2)NC(=O)NC1=O (single isomer, unassigned; ent-2) [Example 153, ent-2-(4-fluorophenyl)-N-[(4-methyl-2,5-dioxoimidazolidin-4-yl)methyl]-2H-1,2,3-triazole-4-carboxamide]
5.92 | 7.46 | O=C1NC(=O)C(CNC(=O)c2cnn(-c3ccc(F)c(Cl)c3)n2)(c2nccs2)N1 (racemic) [Example 111, rac-2-(3-chloro-4-fluorophenyl)-N-{[2,5-dioxo-4-(1,3-thiazol-2-yl)imidazolidin-4-yl]methyl}-2H-1,2,3-triazole-4-carboxamide]
5.29 | 7.22 | CCCC1(CNC(=O)c2cnn(-c3ccc(F)cc3)n2)NC(=O)NC1=O (stereo not drawn) [Example 73, ent-N-[(2,5-dioxo-4-propylimidazolidin-4-yl)methyl]-2-(4-fluorophenyl)-2H-1,2,3-triazole-4-carboxamide]
5.18 | 7.32 | O=C1NC(=O)C(CNC(=O)c2cnn(-c3ccc(F)cc3)n2)(c2ncsc2C(F)(F)F)N1 (racemic) [Example 135, rac-N-({2,5-dioxo-4-[5-(trifluoromethyl)-1,3-thiazol-4-yl]imidazolidin-4-yl}methyl)-2-(4-fluorophenyl)-2H-1,2,3-triazole-4-carboxamide]
